Assay results: patent US9656978B2, “Acylpiperazines as inhibitors of transglutaminase and their use in medicine” (ASTON UNIVERSITY, priority 2012, dated 2017)

Columns and labels:
Format in all cases: biochemical
[1] = biological target: T1, purified recombinant human TG2 (Homo sapiens, UniProt P21980); test: Selectivity assay, TG2, biotin X-cadaverine incorporation into N,N′-dimethylcasein (Example 4); conditions: recombinant human TG2 2 μg/ml, 1 h at 37° C.; errors are SD
T1 construct: purchased Zedira, Germany
T1 sequence (P21980 1-687): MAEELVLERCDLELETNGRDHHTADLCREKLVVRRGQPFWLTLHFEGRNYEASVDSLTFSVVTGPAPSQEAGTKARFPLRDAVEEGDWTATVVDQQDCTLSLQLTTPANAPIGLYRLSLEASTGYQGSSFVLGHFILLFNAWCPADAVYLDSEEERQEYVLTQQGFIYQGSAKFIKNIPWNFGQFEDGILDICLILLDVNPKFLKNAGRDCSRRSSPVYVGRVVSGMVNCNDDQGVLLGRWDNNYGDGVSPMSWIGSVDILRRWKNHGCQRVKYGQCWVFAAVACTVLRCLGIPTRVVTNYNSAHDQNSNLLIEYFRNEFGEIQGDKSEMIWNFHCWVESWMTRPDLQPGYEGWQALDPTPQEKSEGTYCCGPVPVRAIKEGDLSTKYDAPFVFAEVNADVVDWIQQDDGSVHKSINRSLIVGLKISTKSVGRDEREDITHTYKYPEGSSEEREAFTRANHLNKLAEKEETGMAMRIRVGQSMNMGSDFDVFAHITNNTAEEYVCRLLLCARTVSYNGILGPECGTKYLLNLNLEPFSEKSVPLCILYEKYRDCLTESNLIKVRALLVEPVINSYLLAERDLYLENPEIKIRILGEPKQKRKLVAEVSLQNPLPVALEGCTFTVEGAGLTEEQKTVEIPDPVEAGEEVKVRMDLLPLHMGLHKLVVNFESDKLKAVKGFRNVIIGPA
Method: (§1) TG transamidation activity and the effect of inhibitors on activity was measured by biotin X-cadaverine incorporation into N,N′-dimethylcasein. After coating 96 well plates with 100 μl of 10 mg/ml N,N′-dimethylcasein in 50 mM Tris-Cl, pH8 at 4° C. over night, plates were washed with TBS-0.05% Tween-20(v/v), pH 7.6 and TBS, pH 7.6, and either 100 μl purified recombinant human TG2 (2 μg/ml Zedira, Germany) or 100 μl purified recombinant human FXIIIa (2 μg/ml Zedira, Germany, preactivated by incubation with 0.01 U bovine thrombin/μg FXIII at room temperature for 30 minutes) in 50 mM Tris-HCl, pH7.4, containing 1 mM DTT, 10 mM CaCl2 and 0.1 μM biotin-cadaverine added into the coated wells containing the appropriate concentration of inhibitor. The reaction was allowed to proceed for 1 h at 37° C. The plate was then washed twice with TBS-Tween-20 (v/v), pH 7.6 and once with TBS, pH 7.6 before being blocked with 100 μl of blocking buffer (3% (w/v) BSA in TBS-Tween, pH 7.6) for 30 min at 37° C. After blocking, the wells were incubated with 100 μl HRP-conjugated ExtrAvidin peroxidase (Sigma-Aldrich, UK) in blocking buffer (1:1,000 dilution) for 1 h at 37° C. After another set of washes, TG2 activity was measured using Sigma Fast OPD, tablets dissolved in 20 ml of distilled H2O. The colour was developed by adding 2.5M H2SO4 and the absorbance at 490 nm measured using a microplate reader ELx808™. All inhibitors were dissolved in DMSO as a 100 mM solution prior to addition to the assay.

[2] = biological target: T2, purified recombinant human TG2 (tissue transglutaminase) (Homo sapiens, UniProt P21980); test: TG2 transamidation activity, biotin X-cadaverine incorporation into N,N′-dimethylcasein (Example 2); conditions: recombinant human TG2 400 ng/ml, 2 h at 37° C.
T2 construct: purchased Zedira, Germany
T2 sequence (P21980 1-687): T1 sequence (P21980 1-687)
Method: TG transamidation activity and the affect of inhibitors on activity was measured by biotin X-cadaverine incorporation into N,N′-dimethylcasein. After coating 96 well plates with 100 μl of 10 mg/ml N,N′-dimethylcasein in 50 mM Tris-Cl, pH8 at 4° C. over night, plates were washed with TBS-0.05% Tween-20(v/v), pH 7.6 and TBS, pH 7.6, and 100 μl purified recombinant human TG2 (400 ng/ml Zedira, Germany) (tissue transglutaminase) in 50 mM Tris-HCl, pH7.4, containing 1 mM DTT, 10 mM CaCl2 and 0.1 μM biotin-cadaverine added into the coated wells containing the appropriate concentration of inhibitor. The reaction was allowed to proceed for 2 h at 37° C. The plate was then washed twice with TBS-Tween-20 (v/v), pH 7.6 and once with TBS, pH 7.6 before being blocked with 100 μl of blocking buffer (3% (w/v) BSA in TBS-Tween, pH 7.6) for 30 min at 37° C. After blocking, the wells were incubated with 100 μl HRP-conjugated Extr-Avidin peroxidase (Sigma-Aldrich, UK) in blocking buffer (1:1,000 dilution) for 1 h at 37° C. After another set of washes, TG2 activity was measured using Sigma Fast OPD, tablets dissolved in 20 ml of distilled H2O. The colour was developed by adding 2.5 M H2SO4 and the absorbance at 490 nm measured using a microplate reader ELx808™. All inhibitors were dissolved in DMSO as a 100 mM solution prior to addition to the assay.

[3] = biological target: T3, purified recombinant human FXIIIa (Homo sapiens, UniProt P00488); test: Selectivity assay, FXIIIa, biotin X-cadaverine incorporation into N,N′-dimethylcasein (Example 4); conditions: recombinant human FXIIIa 2 μg/ml, thrombin preactivated, 1 h at 37° C.; errors are SD; read-out: FACTOR XIII IC50
T3 construct: purchased Zedira, Germany
T3 sequence (P00488 39-732 limits assumed): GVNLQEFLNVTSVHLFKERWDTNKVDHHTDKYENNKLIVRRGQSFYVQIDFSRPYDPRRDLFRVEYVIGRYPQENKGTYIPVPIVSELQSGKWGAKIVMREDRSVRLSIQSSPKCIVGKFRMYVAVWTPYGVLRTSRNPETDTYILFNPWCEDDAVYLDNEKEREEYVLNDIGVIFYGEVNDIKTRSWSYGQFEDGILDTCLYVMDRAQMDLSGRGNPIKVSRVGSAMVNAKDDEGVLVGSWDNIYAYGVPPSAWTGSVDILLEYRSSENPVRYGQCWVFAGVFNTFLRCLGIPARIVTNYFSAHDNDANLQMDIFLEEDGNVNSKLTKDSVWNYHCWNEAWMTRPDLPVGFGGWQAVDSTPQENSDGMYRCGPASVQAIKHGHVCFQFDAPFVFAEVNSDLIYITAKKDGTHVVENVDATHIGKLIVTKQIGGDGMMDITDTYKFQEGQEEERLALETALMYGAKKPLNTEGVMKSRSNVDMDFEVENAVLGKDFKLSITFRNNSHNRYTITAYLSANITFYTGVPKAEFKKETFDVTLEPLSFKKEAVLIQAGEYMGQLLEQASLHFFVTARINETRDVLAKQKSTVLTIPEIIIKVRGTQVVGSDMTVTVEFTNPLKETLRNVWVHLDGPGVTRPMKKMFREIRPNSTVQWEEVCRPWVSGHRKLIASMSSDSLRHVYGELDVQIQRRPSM
Method: as §1

Row | Compound | IC50 [1] | IC50 [2] | IC50 [3]
1 | C[S+](C)CC(=O)N[C@@H](Cc1ccccc1)C(=O)N1CCN(C(=O)OCc2ccccc2)CC1 [EB 1-126] | > 500 µM | > 100 µM | 15.5 ± 6.3 µM
2 | C[S+](C)CC(=O)N[C@H](Cc1ccccc1)C(=O)N1CCN(C(=O)OCc2ccccc2)CC1 [EB 1-127] | > 500 µM | > 100 µM | 23.3 ± 5.5 µM
3 | C=CC(=O)N[C@H](Cc1ccccc1)C(=O)N1CCN(C(=O)OCc2ccccc2)CC1 [EB 1-131] | > 500 µM | > 100 µM | 13.5 ± 4.9 µM
